Data published in ChEMBL document CHEMBL1131901, “Synthesis and opiate receptor binding properties of 17-methyl-6,7-dehydro-3,14-dihydroxy-4,5alpha-epoxy-6,7:4',5'-pyrimidin omorphinans” (Bioorg Med Chem Lett, 1999).

What was measured:
[1] = target: T1, Mu-type opioid receptor (Homo sapiens, UniProt P35372); assay: Agonistic activity against human opioid Mu receptor transfected into Chinese hamster ovary (CHO) cells using [3H]-DAMGO as radioligand; assay type: functional, cell-based
[2] = target: T2, Delta-type opioid receptor (Homo sapiens, UniProt P41143); assay: (§1) Agonistic activity against human opioid Delta receptor transfected into Chinese hamster ovary (CHO) cells using [3H]Cl-DPDPE as radioligand; assay type: functional, cell-based
[3] = target: T1, Mu-type opioid receptor; assay: Agonistic activity against human opioid Mu receptor transfected into Chinese hamster ovary (CHO) cells using [3H]DAMGO as radioligand; assay type: functional, cell-based
[4] = target: T3, Kappa-type opioid receptor (Homo sapiens, UniProt P41145); assay: (§2) Agonistic activity against human opioid Kappa receptor transfected into Chinese hamster ovary (CHO) cells using [3H]U-69593 as radioligand; assay type: functional, cell-based
[5] = target: T2, Delta-type opioid receptor; assay: as §1; assay type: functional, cell-based; remark: listed apart in the source
[6] = target: T1, Mu-type opioid receptor; assay: Binding affinity towards human opioid Mu receptor transfected into Chinese hamster ovary (CHO) cells using [3H]DAMGO as radioligand; assay type: cell-based
[7] = target: T2, Delta-type opioid receptor; assay: Binding affinity towards human opioid Delta receptor transfected into Chinese hamster ovary (CHO) cells using [3H]Cl-DPDPE as radioligand.; assay type: cell-based
[8] = target: T3, Kappa-type opioid receptor; details: CHO
Description: Antagonistic activity against human opioid Kappa receptor transfected into Chinese hamster ovary (CHO) cells using [3H]U-69593 as radioligand

[9] = target: T3, Kappa-type opioid receptor; assay: Binding affinity towards human opioid Kappa receptor transfected into Chinese hamster ovary (CHO) cells using [3H]U-69593 as radioligand.; assay type: cell-based
[10] = target: T3, Kappa-type opioid receptor; assay: as §2; assay type: functional, cell-based; remark: listed apart in the source
[11] = target: T1, Mu-type opioid receptor; assay: as §1; assay type: functional, cell-based

T3 sequence (P41145 whole entry): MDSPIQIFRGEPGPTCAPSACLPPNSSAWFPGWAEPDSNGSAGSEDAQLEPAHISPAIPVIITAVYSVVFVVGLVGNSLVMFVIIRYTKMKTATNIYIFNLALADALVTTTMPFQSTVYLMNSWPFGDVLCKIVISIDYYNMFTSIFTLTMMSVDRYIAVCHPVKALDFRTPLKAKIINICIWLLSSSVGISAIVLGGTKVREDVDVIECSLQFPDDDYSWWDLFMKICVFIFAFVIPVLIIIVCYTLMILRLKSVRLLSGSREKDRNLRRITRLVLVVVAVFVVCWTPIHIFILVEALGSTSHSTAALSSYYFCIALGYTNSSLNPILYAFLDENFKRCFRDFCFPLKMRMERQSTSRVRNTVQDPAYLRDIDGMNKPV
T2 sequence (P41143 whole entry): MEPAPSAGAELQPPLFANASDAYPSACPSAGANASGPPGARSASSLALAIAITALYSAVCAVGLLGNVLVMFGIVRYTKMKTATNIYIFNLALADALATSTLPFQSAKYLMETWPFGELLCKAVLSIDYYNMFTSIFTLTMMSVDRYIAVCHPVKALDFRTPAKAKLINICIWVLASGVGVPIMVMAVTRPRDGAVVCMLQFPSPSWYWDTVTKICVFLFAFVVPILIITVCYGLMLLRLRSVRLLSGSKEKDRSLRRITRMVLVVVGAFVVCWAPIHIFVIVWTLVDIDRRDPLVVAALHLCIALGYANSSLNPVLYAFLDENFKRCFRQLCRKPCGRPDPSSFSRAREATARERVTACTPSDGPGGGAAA
T1 sequence (P35372 whole entry): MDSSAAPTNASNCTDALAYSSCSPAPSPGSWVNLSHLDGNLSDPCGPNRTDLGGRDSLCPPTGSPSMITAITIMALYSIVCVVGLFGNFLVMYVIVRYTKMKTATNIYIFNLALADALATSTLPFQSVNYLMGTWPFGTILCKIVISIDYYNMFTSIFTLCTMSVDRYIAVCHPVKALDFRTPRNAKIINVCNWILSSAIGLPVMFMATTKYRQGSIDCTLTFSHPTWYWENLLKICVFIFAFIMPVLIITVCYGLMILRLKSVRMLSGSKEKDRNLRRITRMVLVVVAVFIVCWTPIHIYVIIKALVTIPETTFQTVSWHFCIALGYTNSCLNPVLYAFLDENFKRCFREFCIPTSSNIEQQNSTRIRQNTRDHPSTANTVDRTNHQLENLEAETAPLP

Structure (SMILES) | EC50 [1] [nM] | Stimulation [2] [%] | Stimulation [3] [%] | Stimulation [4] [%] | EC50 [5] [nM] | Ki [6] [nM] | Ki [7] [nM] | Ke [8] | Ki [9] [nM] | EC50 [10] [nM] | Stimulation [11] [%]
CN1CCC23c4c5ccc(O)c4OC2c2n[nH]cc2CC3(O)C1C5 (centres undefined) | 19.3 | 75.2 | 80.3 | 18.9 | 25 | 1.72 | 12.2 | 59.3 | 11.9 | – | –
CN1CCC23c4c5ccc(O)c4OC2c2[nH]c(=O)ncc2CC3(O)C1C5 (centres undefined) | 110 | – | – | – | 61.5 | 3.75 | 19.1 | – | 12.3 | 1020 | –
CN1CCC23c4c5ccc(O)c4OC2c2nc(N)ncc2CC3(O)C1C5 (centres undefined) | 75.2 | – | – | 34.3 | 66.1 | 7.32 | 19 | – | 21.1 | 1080 | 78.7
CN1CCC23c4c5ccc(O)c4OC2c2nc(-c4ccccc4)ncc2CC3(O)C1C5 (centres undefined) | 58.4 | 92.5 | 89.4 | 49.5 | 24 | 7.34 | 6.48 | – | 45 | 1420 | –
CN1CCC23c4c5ccc(O)c4OC2c2nc(O)ncc2CC3(O)C1C5 (centres undefined) | – | 97 | 87.7 | 40.7 | – | – | – | – | – | – | –
Cc1ncc2c(n1)C1Oc3c(O)ccc4c3C13CCN(C)C(C4)C3(O)C2 (centres undefined) | 71.9 | 60 | 109 | 97 | 95.9 | 5.26 | 24 | – | 68.5 | 2730 | –
